From the supplement of paper PMC10307832

What follows are cell lines tested with Cc1ccc(Nc2nccc(N(C)c3ccc4c(C)n(C)nc4c3)n2)cc1S(N)(=O)=O [Pazopanib] + COc1cccc2cc(-c3nc([C@H]4CC[C@H](C(=O)O)CC4)n4ncnc(N)c34)[nH]c12 [OSI-027] (partner 0.5 µM) (assay: relative viability (nuclei count vs DMSO), 5 days (fraction); higher = more cells survive). Conditions: first compound 1 µM.
Procedure, shortened: (§1)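 Lung cancer cell lines were seeded in 1536-well plates and dosed by pin tool the next day, with either a single drug or a fixed anchor-drug dose combined with five library-drug doses (not always all listed) spaced in √10 steps. Five days later, one step fixed the cells and stained their nuclei (final 0.05% Triton X-100, 1% formaldehyde, 1 ug/ml Hoechst), and nuclei were counted on 4× images. Relative viability is the nuclei count in treated wells divided by the count in vehicle wells, and each value is the median of duplicate plates.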

Cell Line | relative viability
H3255 | 0.752
COR-L23 | 0.913
COR-L 105 | 0.857
LOU-NH91 | 0.728
ChaGo-K-1 | 0.581
NCI-H358 | 1.03
NCI-H3122 | 1.26
HOP-62 | 0.727
HCC-44 | 0.677
NCI-H522 | 0.775
LU99A | 0.301
BEN | 0.314
HARA | 0.6
SW 900 | 0.565
HCC-78 | 0.371
NCI-H441 | 0.454
LCLC-97TM1 | 0.513
NCI-H2009 | 0.44
NCI-H1793 | 0.273
NCI-H2170 | 0.655

What follows are cell lines tested with Cc1ccc(C(=O)Nc2ccc(CN3CCN(C)CC3)c(C(F)(F)F)c2)cc1C#Cc1cnc2cccnn12 [Ponatinib] + CS(=O)(=O)CCNCc1ccc(-c2ccc3ncnc(Nc4ccc(OCc5cccc(F)c5)c(Cl)c4)c3c2)o1 [Lapatinib] (partner 2 µM) in the same assay as above. Conditions: first compound 0.002 µM.
Procedure, shortened: as §1

Cell Line | relative viability
NCI-H838 | 0.911
NCI-H1650 | 0.735
EBC-1 | 0.2
NCI-H1703 | 0.989
NCI-H1993 | 0.885
NCI-H2347 | 0.951
PC-14 | 0.313
NCI-H596 | 1.09
NCI-H2126 | 0.729
EMC-BAC-2 | 0.797
NCI-H2085 | 0.733
Calu-6 | 1
HCC-366 | 1.01
NCI-H1666 | 0.619
NCI-H647 | 0.99
LK-2 | 0.82
NCI-H2087 | 0.708
H3255 | 0.222

Cell Line | relative viability
COR-L23 | 0.79
COR-L 105 | 0.385
IA-LM | 0.897
LOU-NH91 | 0.717
NCI-H358 | 0.468
NCI-H3122 | 0.993
HOP-62 | 0.929
HCC-44 | 0.969
A549 | 0.946
LU99A | 0.98
BEN | 0.503
HARA | 0.88
HCC-78 | 0.74
NCI-H2009 | 0.865
NCI-H1793 | 0.645
NCI-H1299 | 0.956
NCI-H2170 | 0.281

Same assay, conditions: first compound 0.006325 µM

Cell Line | relative viability
NCI-H838 | 1.04
NCI-H1650 | 0.811
EBC-1 | 0.233
NCI-H1703 | 0.787
NCI-H1993 | 0.78
NCI-H2347 | 0.908
PC-14 | 0.363
NCI-H596 | 0.898
NCI-H2126 | 0.766
EMC-BAC-2 | 0.852
NCI-H2085 | 0.815
Calu-6 | 0.954
HCC-366 | 1.01
NCI-H1666 | 0.666
NCI-H647 | 0.995
LK-2 | 0.861
NCI-H2087 | 0.781
NCI-H1395 | 0.888
H3255 | 0.268

Cell Line | relative viability
COR-L23 | 0.931
COR-L 105 | 0.369
IA-LM | 0.67
LOU-NH91 | 0.788
NCI-H358 | 0.431
NCI-H3122 | 1
HOP-62 | 0.987
HCC-44 | 0.903
A549 | 1.03
LU99A | 1.13
BEN | 0.509
HARA | 0.887
HCC-78 | 0.709
LCLC-97TM1 | 1
NCI-H2009 | 0.887
NCI-H1793 | 0.786
NCI-H1299 | 0.968
NCI-H2170 | 0.295

Same assay, conditions: first compound 0.06325 µM

Cell Line | relative viability
NCI-H838 | 1.03
NCI-H1650 | 0.636
EBC-1 | 0.225
NCI-H1703 | 0.339
NCI-H1993 | 0.872
NCI-H2347 | 0.94
PC-14 | 0.384
NCI-H596 | 0.905
NCI-H2126 | 0.888
EMC-BAC-2 | 0.918
NCI-H2085 | 0.843
Calu-6 | 1.22
HCC-366 | 1.08
NCI-H1666 | 0.796
NCI-H647 | 1.11
LK-2 | 0.696
NCI-H2087 | 0.876
NCI-H1395 | 0.782

Cell Line | relative viability
H3255 | 0.263
COR-L23 | 0.914
COR-L 105 | 0.374
IA-LM | 0.77
LOU-NH91 | 0.755
NCI-H358 | 0.393
NCI-H3122 | 1.01
HOP-62 | 0.856
HCC-44 | 1.12
A549 | 1.05
LU99A | 0.951
BEN | 0.721
HARA | 0.406
HCC-78 | 0.597
NCI-H2009 | 1.08
NCI-H1793 | 0.645
NCI-H1299 | 0.979
NCI-H2170 | 0.289

Same assay, conditions: first compound 0.2 µM

Cell Line | relative viability
NCI-H838 | 0.813
NCI-H1650 | 0.62
EBC-1 | 0.227
NCI-H1703 | 0.313
NCI-H1993 | 0.872
NCI-H2347 | 0.93
PC-14 | 0.386
NCI-H596 | 0.748
NCI-H2126 | 0.718
EMC-BAC-2 | 0.806
NCI-H2085 | 0.879
Calu-6 | 1.03
HCC-366 | 1.01
NCI-H1666 | 0.773
NCI-H647 | 0.811
LK-2 | 0.54
NCI-H2087 | 0.672
NCI-H1395 | 0.753
H3255 | 0.21

Cell Line | relative viability
COR-L23 | 0.781
COR-L 105 | 0.347
IA-LM | 0.721
LOU-NH91 | 0.709
NCI-H358 | 0.378
NCI-H3122 | 1.07
HOP-62 | 0.91
HCC-44 | 1.06
A549 | 0.88
LU99A | 0.868
BEN | 0.628
HARA | 0.378
HCC-78 | 0.63
LCLC-97TM1 | 0.786
NCI-H2009 | 0.946
NCI-H1793 | 0.459
NCI-H1299 | 0.934
NCI-H2170 | 0.298

These cell lines were tested with Cc1ccc(C(=O)Nc2ccc(CN3CCN(C)CC3)c(C(F)(F)F)c2)cc1C#Cc1cnc2cccnn12 [Ponatinib] + C[C@@H](Oc1cc(-c2cnn(C3CCNCC3)c2)cnc1N)c1c(Cl)ccc(F)c1Cl [Crizotinib] (partner 1 µM) in the same assay as above. Conditions: first compound 0.002 µM.
Procedure, shortened: as §1

Cell Line | relative viability
NCI-H838 | 0.793
NCI-H1650 | 1.03
EBC-1 | 0.179
NCI-H1703 | 0.588
NCI-H1993 | 0.796
NCI-H2347 | 0.694
PC-14 | 0.866
LCLC-103H | 1.03
NCI-H596 | 0.905
NCI-H2126 | 0.97
EMC-BAC-2 | 0.708
NCI-H2085 | 0.837
Calu-6 | 0.701
HCC-366 | 0.474
NCI-H1666 | 0.951
NCI-H647 | 0.851
LK-2 | 0.26
NCI-H2087 | 0.669
H3255 | 0.861

Cell Line | relative viability
COR-L23 | 0.525
COR-L 105 | 0.706
IA-LM | 0.6
LOU-NH91 | 0.709
ChaGo-K-1 | 1.12
NCI-H358 | 0.536
NCI-H3122 | 0.267
HOP-62 | 0.876
HCC-44 | 0.752
A549 | 0.625
LU99A | 0.512
BEN | 0.838
HARA | 0.972
HCC-78 | 0.291
NCI-H441 | 0.576
NCI-H2009 | 1.04
NCI-H1299 | 0.904
NCI-H2170 | 1.13

Same assay, conditions: first compound 0.006325 µM

Cell Line | relative viability
NCI-H838 | 0.95
NCI-H1650 | 0.939
EBC-1 | 0.214
NCI-H1703 | 0.693
NCI-H1993 | 1.01
NCI-H2347 | 0.885
PC-14 | 0.901
LCLC-103H | 1.13
NCI-H596 | 0.891
NCI-H2126 | 1.02
EMC-BAC-2 | 0.661
NCI-H2085 | 0.704
Calu-6 | 0.73
HCC-366 | 0.506
NCI-H1666 | 0.978
NCI-H647 | 1.07
LK-2 | 0.217
NCI-H2087 | 0.654
H3255 | 0.916

Cell Line | relative viability
COR-L23 | 0.588
COR-L 105 | 1.05
IA-LM | 0.737
LOU-NH91 | 0.777
ChaGo-K-1 | 1.16
NCI-H358 | 0.512
NCI-H3122 | 0.278
HOP-62 | 0.94
HCC-44 | 0.799
A549 | 0.743
LU99A | 0.53
BEN | 0.824
HARA | 1.01
HCC-78 | 0.322
NCI-H441 | 0.632
LCLC-97TM1 | 0.369
NCI-H2009 | 0.975
NCI-H1299 | 0.936
NCI-H2170 | 1.15

Same assay, conditions: first compound 0.06325 µM

Cell Line | relative viability
NCI-H838 | 0.813
NCI-H1650 | 1.17
EBC-1 | 0.208
NCI-H1703 | 0.254
NCI-H1993 | 1.01
NCI-H2347 | 0.668
PC-14 | 0.966
LCLC-103H | 1.17
NCI-H596 | 0.917
NCI-H2126 | 1.1
EMC-BAC-2 | 0.747
NCI-H2085 | 0.939
Calu-6 | 0.805
HCC-366 | 0.531
NCI-H1666 | 1.06
NCI-H647 | 1.12
LK-2 | 0.234
NCI-H2087 | 0.839
H3255 | 0.951

Cell Line | relative viability
COR-L23 | 0.619
COR-L 105 | 0.791
IA-LM | 0.887
LOU-NH91 | 0.758
ChaGo-K-1 | 1.08
NCI-H358 | 0.517
NCI-H3122 | 0.315
HOP-62 | 0.901
HCC-44 | 0.908
A549 | 0.682
LU99A | 0.564
BEN | 0.804
HARA | 0.973
HCC-78 | 0.447
NCI-H441 | 0.835
NCI-H2009 | 1.11
NCI-H1299 | 0.974
NCI-H2170 | 1.22

Same assay, conditions: first compound 0.2 µM

Cell Line | relative viability
NCI-H838 | 0.789
NCI-H1650 | 0.821
EBC-1 | 0.192
NCI-H1703 | 0.172
NCI-H1993 | 1
NCI-H2347 | 0.688
PC-14 | 0.946
LCLC-103H | 1.03
NCI-H596 | 0.843
NCI-H2126 | 1.03
EMC-BAC-2 | 0.727
NCI-H2085 | 0.842
Calu-6 | 0.763
HCC-366 | 0.519
NCI-H1666 | 0.989
NCI-H647 | 0.989
LK-2 | 0.269
NCI-H2087 | 0.853
H3255 | 0.727

Cell Line | relative viability
COR-L23 | 0.568
COR-L 105 | 0.703
IA-LM | 0.7
LOU-NH91 | 0.731
ChaGo-K-1 | 0.95
NCI-H358 | 0.502
NCI-H3122 | 0.366
HOP-62 | 0.917
HCC-44 | 0.808
A549 | 0.702
LU99A | 0.59
BEN | 0.794
HARA | 1.02
HCC-78 | 0.312
NCI-H441 | 0.607
LCLC-97TM1 | 0.413
NCI-H2009 | 1.02
NCI-H1299 | 0.923
NCI-H2170 | 1.17
